# Results reported in US20110105349A1, “USE OF A MONOPHOSPHATE ESTER OF A PHTHALEIN COMPOUND AS A SUBSTRATE FOR TARTRATE-RESISTANT ACID PHOSPHATASE B5 (TRAP 5B)” (MUNODIAGNOSTIC SYSTEMS LIMITED, priority 2008, published 2011).
# “And” between values parts separate entries of the source, which are not always exact repeats. Equal values may be shown once. “Also recorded” adds a separate entry of the source.
# Legend:
# TRAP5b [1] = assay: TRAP5 capture immunoassay, specific activity with each substrate (Example 3); type: biochemical, human; conditions: for Ratio 5B:5A of specific activity / TRAP5 Specific Activity 5B: pNPP at pH 6.1, PTMP and TTMP at pH 7.0; for specificity for TRAP5b over TRAP5a compared with the commercial pNPP based assay: relative to pNPP-based assay; for TRAP5 Specific Activity 5B: serum-derived TRAP5b
# Procedure: (§1) Microtitre plates (Nunc Maxisorp) were coated with mouse anti-TRAP5 (clone O1A), from a solution of a 3.0 mg/L purified Mab IgG in 10 mM phosphate buffered saline (PBS), 100 μL per well and incubated overnight at room temperature. The coated plates were washed three times with 10 mM phosphate buffered saline, 0.05% Tween 20. A stabilising reagent of 5% lactose, 0.5% BSA was added, 250 μL per well, incubated for at least 10 minutes, then the liquid aspirated. The coated plates were dried overnight at 35° C. then stored at 2-8° C. protected from moisture.
# (§2) Serum-derived TRAP5a and TRAP5b were separated by ion exchange chromatography using a modification of the procedure described by Lam et al, Clin. Chem. 24(7):1105-1108, 1978. 100-500 mL human serum was adjusted to around pH 5.0 with 100% acetic acid, and optionally diluted with an equal volume of 10 mM sodium phosphate buffer, pH 4.9. After clarification by centrifugation and filtering, the acidified serum was applied to a 1 cm×100-150 cm column of CM-Sepharose (Sigma, part No CCF 100) and the column was developed with a linear NaCl gradient, from 150-800 mM. Fractions containing TRAP5a and TRAP5b activity were identified using a non-capture assay essentially as described by Lam et al Clin. Chem. 24(7):1105-1108, 1978. In some instances the fractions were further assayed for TRAP5 by the immunoassays described below. Fractions containing peak levels of TRAP5a or TRAP5b were separately pooled for further analysis.
# The TRAP5 protein concentration in the TRAP5a and TRAP5b preparations was determined by a sandwich immunoassay. 100-200 μL sample per well was applied to O1A-coated microtitre plates and incubated overnight at 4° C. The plate was washed three times with 10 mM phosphate buffered saline, 0.05% Tween 20, and 100-200 μL of a solution containing the rabbit anti-TRAP5 antibody at a dilution of 1:4000 was added per well. After 60 min incubation at ambient temperature the plate was washed as above and 100-200 μL of a solution containing anti-rabbit IgG-Horseradish peroxidase conjugate at a dilution of 1:5000 was added and incubated for 30 min at ambient temperature. After further washing as described above […] of TMB (BioFx Inc, part TMBW-0100-01) was added and incubated for 30 min at ambient temperature. The reactions were stopped by the addition of 100 μL 0.5M HCl and the absorbance at 450 nm was measured. TRAP5 protein concentrations were calculated by reference to a calibration curve prepared from baculovirus-derived recombinant human TRAP5.
# (§3) To test for activity towards PTMP, 100 μL of a solution containing 6 mg/mL PTMP dissolved in 125 mM MOPS buffer, pH 7.0 was added per well and incubated for 0-40 min at 37° C. The reactions were stopped at the times indicated by the addition of 50 μL per well of 1M glycine/NaOH, pH11 and the absorbance at […] was measured. To test for activity towards TTMP, 100 μL of a solution containing 5 mg/mL TTMP dissolved in 80 mM MOPS buffer, 10% ethanol, pH 7.0 was added per well and incubated for 0-40 min at 37° C. The reactions were stopped at the times indicated by the addition of 50 μL per well of 0.25 M NaOH and the absorbance at […] was measured.
# TRAP5a and TRAP5b preparations were prepared and quantified with respect to TRAP5 mass as described in Example 3. A set of TRAP5 calibrators was prepared by incubating 225 μg baculovirus-derived recombinant human TRAP with 12 U chymotrypsin for 6 h at ambient temperature, preparing a series of dilutions from this material and assigning TRAP5 concentrations (in U/L) to these dilutions using the commercial TRAP5b immunoassay based on WO1999/050662. The TRAP5a and TRAP5b preparations were assayed by a commercial TRAP5b immunoassay based on WO1999/050662 which uses pNPP as substrate at pH 6.1 with the modification that the chymotrypsin-treated calibrators described above were substituted for those provided by the manufacturer. […]
# TRAP5b [2] = assay: Time course of substrate hydrolysis on O1A-coated plates (Example 1, FIG. 1); type: biochemical, human; conditions: for specific activity of TRAP5b relative to that of TRAP5a: pH 7.0, from FIG. 1; for hydrolysis of substrate by TRAP5b: serum-derived TRAP5b, neutral pH (7.0) in Example 1
# Procedure: as §1, §2
# (§4) The TRAP5 protein concentration in the TRAP5a and TRAP5b preparations was determined by a sandwich immunoassay. 100-200 μL sample per well was applied to O1A-coated microtitre plates and incubated overnight at 4° C. The plate was washed three times with 10 mM phosphate buffered saline, 0.05% Tween 20, and 100-200 μL of a solution containing the rabbit anti-TRAP5 antibody at a dilution of 1:4000 was added per well. […] The reactions were stopped by the addition of 100 μL 0.5M HCl and the absorbance at 450 nm was measured. TRAP5 protein concentrations were calculated by reference to a calibration curve prepared from baculovirus-derived recombinant human TRAP5.
# (§5) To test for activity towards PTMP, 100 μL of a solution containing 6 mg/mL PTMP dissolved in 125 mM MOPS buffer, pH 7.0 was added per well and incubated for 0-40 min at 37° C. The reactions were stopped at the times indicated by the addition of 50 μL per well of 1M glycine/NaOH, pH11 and the absorbance at […] was measured. […] The reactions were stopped at the times indicated by the addition of 50 μL per well of 0.25 M NaOH and the absorbance at […] was measured.
# TRAP5a [3] = target: T1, TRAP5a (Homo sapiens, UniProt P13686); assay: TRAP5 capture immunoassay, specific activity with each substrate (Example 3); type: biochemical; conditions: for TRAP5 Specific Activity 5A: serum-derived TRAP5a, pNPP at pH 6.1, PTMP and TTMP at pH 7.0
# T1 construct: Serum-derived TRAP5a and TRAP5b were separated by ion exchange chromatography; from tissue; host or cells: human serum
# T1 sequence (P13686 22-325): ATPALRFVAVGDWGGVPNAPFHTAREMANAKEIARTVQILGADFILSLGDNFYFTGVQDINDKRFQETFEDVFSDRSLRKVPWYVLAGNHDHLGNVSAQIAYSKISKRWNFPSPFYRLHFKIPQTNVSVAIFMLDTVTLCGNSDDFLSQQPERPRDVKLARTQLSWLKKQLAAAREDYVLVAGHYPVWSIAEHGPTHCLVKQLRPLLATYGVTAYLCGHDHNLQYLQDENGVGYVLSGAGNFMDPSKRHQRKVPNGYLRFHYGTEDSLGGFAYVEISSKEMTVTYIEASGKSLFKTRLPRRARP
# Procedure: as §1, §2, §4, §5
# TRAP5a and TRAP5b preparations were prepared and quantified with respect to TRAP5 mass as described in Example 3. […]
# TRAP5a [4] = target: T1, TRAP5a; assay: Time course of substrate hydrolysis on O1A-coated plates (Example 1, FIG. 1); type: biochemical; conditions: serum-derived TRAP5a; neutral pH (7.0) in Example 1
# Procedure: Microtitre plates (Nunc Maxisorp) were coated with mouse anti-TRAP5 (clone O1A), from a solution of a 3.0 mg/L purified Mab IgG in 10 mM phosphate buffered saline (PBS), 100 μL per well and incubated overnight at room temperature. The coated plates were washed three times with 10 mM phosphate buffered saline, 0.05% Tween 20. A stabilising reagent of 5% lactose, 0.5% BSA was added, 250 μL per well, incubated for at least 10 minutes, then the liquid aspirated. The coated plates were dried overnight at 35° C. then stored at 2-8° C. protected from moisture. […]
# The TRAP5 protein concentration in the TRAP5a and TRAP5b preparations was determined by a sandwich immunoassay. […] The reactions were stopped by the addition of 100 μL 0.5M HCl and the absorbance at 450 nm was measured. TRAP5 protein concentrations were calculated by reference to a calibration curve prepared from baculovirus-derived recombinant human TRAP5.
# as §5
# TRAP5b [5] = conditions: cited from earlier work; for pH optimum of TRAP5b: WO1999/050662 (pNPP), EP1598670 (2-chloro-4-nitrophenylphosphate)
# TRAP5a [6] = target: T1, TRAP5a; assay: Assay of CM-Sepharose fractions of normal human serum with pNPP- and PTMP-based assays (Example 4, FIG. 3); type: biochemical
# Source text: TRAP5a and TRAP5b from normal human serum were separated on a CM-Sepharose column and the fractions assessed for TRAP5b using the pNPP and PTMP-based assays described in Example 3.
# TRAP5a [7] = target: T1, TRAP5a; assay: Activity with phthalein monophosphate esters at 0.47 mg/mL, pH 7.4 (Example 8); type: biochemical; design: unit not given beside the values; conditions: 0.47 mg/mL in 100 mM MES pH7.4
# Procedure: as §3
# (§6) Where phthalein monophosphate esters were not available commercially, the monophosphate esters were prepared by the method of Bulbenko & Woodbridge (U.S. Pat. No. 4,045,290) by reaction of the appropriate phthalein compound (from Sigma-Aldrich) with phosphorus oxychloride (CAS 10025-87-3), followed by hydrolysis and purification. The monophosphate esters were further purified before use by HPLC chromatography to remove un-reacted phthalein dye. HPLC column 10 mm×150 mm ACE 5 C18 (Advance Chromatography Technologies, UK), load solvent composition, 30% methanol and 70% water containing 0.1% trifluoroacetic acid (TFA); product was eluted by a gradient from 30% methanol 0.1% TFA to 100% methanol 0.1% TFA at 3 mL/minute over 45 minutes.
# (§7) Phthalein monophosphate esters prepared in Example 7 were diluted to 0.47 mg/mL in 100 mM MES pH7.4 buffer and applied to an assay as in Example 1.
# TRAP5b [8] = assay: as above; type: biochemical, human; design: 5b Activity: unit not given here; conditions: 0.47 mg/mL in 100 mM MES pH7.4
# Procedure: as §3, §6, §7
# TRAP5b [9] = assay: pH vs activity profile (Example 2, FIG. 2); type: biochemical, human; conditions: substrate 6 mg/mL in MES or MOPS buffers
# Procedure: (§8) Since TRAP5 is an acid phosphatase that normally is only active under acidic conditions, the relationship between TRAP5a and TRAP5b enzyme activity and substrate pH using PTMP as substrate over a range of pH values was investigated. The TRAP5 assays were performed essentially as described for Example 1, except that the PTMP substrate was dissolved at 6 mg/mL in a series of 100 mM MES or 100 mM MOPS buffers to give the pH values indicated.
# TRAP5a [10] = target: T1, TRAP5a; assay: pH vs activity profile (Example 2, FIG. 2); type: biochemical; conditions: substrate 6 mg/mL in MES or MOPS buffers
# Procedure: as §8
Compound,Ratio 5B:5A of specific activity (TRAP5b [1]),TRAP5 Specific Activity 5B (TRAP5b [1]) [U/μg],TRAP5 Specific Activity 5A (TRAP5a [3]) [U/μg],5a Activity (TRAP5a [7]),5b Activity (TRAP5b [8]),Ratio of 5b:5a activity (TRAP5b [8]),other results
"Cc1cc(O)c(C(C)C)cc1C1(c2cc(C(C)C)c(OP(=O)(O)O)cc2C)OC(=O)c2ccccc21 (stereo not shown) [TTMP, Thymolphthalein monophosphate]",65.3,2.3,0.035,–,–,–,specificity for TRAP5b over TRAP5a compared with the commercial pNPP based assay (TRAP5b [1]): ~6.5 fold; specific activity of TRAP5b relative to that of TRAP5a (TRAP5b [2]): approximately 70 times; hydrolysis of substrate by TRAP5b (TRAP5b [2]): readily hydrolyze; also recorded: hydrolised; hydrolysis of substrate by TRAP5a (TRAP5a [4]): readily hydrolyze; also recorded: hydrolised
"O=[N+]([O-])c1ccc(OP(=O)(O)O)cc1 [pNPP, p-nitrophenyl phosphate, reference compound]",9 and 9.04,1.60,0.177,–,–,–,"pH optimum of TRAP5b (TRAP5b [5]): ~5.9 pH; share of the material measured as TRAP5b that is actually TRAP5a (TRAP5a [6]; normal human serum, CM-Sepharose fractions): around 40%"
O=[N+]([O-])c1ccc(OP(=O)(O)O)c(Cl)c1 [2-chloro-4-nitrophenylphosphate],–,–,–,–,–,–,relative activity for TRAP 5b over TRAP 5a compared with WO1999/050662 (TRAP5b [5]; EP 1598670): 0.8 ×; pH optimum of TRAP5b (TRAP5b [5]): 6.4 pH
"O=P(O)(O)Oc1ccc(C2(c3ccc(O)c(Cl)c3)OS(=O)(=O)c3ccccc32)cc1Cl (stereo not shown) [Chlorophenol Red, Chlorophenol Red monophosphate]",–,–,–,0.0067,0.3558,53.1,–
"Cc1c(C2(c3cc(Br)c(OP(=O)(O)O)c(Br)c3C)OS(=O)(=O)c3ccccc32)cc(Br)c(O)c1Br (stereo not shown) [Bromocresol Green, Bromocresol Green monophosphate]",–,–,–,0.0036,0.2636,73.2,–
"Cc1cc(C2(c3cc(C)c(OP(=O)(O)O)c(Br)c3)OS(=O)(=O)c3ccccc32)cc(Br)c1O (stereo not shown) [Bromocresol Purple, Bromocresol Purple monophosphate]",–,–,–,0.0074,0.4755,64.3,–
"O=C1OC(c2ccc(O)cc2)(c2ccc(OP(=O)(O)O)cc2)c2ccccc21 (stereo not shown) [PTMP, Phenolphthalein monophosphate]",47.5,1.68,0.035,0.0110,0.3664,33.3,"specificity for TRAP5b over TRAP5a compared with the commercial pNPP based assay (TRAP5b [1]): ~4.75 fold; pH of maximal activity (pH optimum) of TRAP5b (TRAP5b [9]): 7.0 pH; pH of maximal activity (pH optimum) of TRAP5a (TRAP5a [10]): ~6.0 pH; specific activity of TRAP5b relative to that of TRAP5a (TRAP5b [2]): approximately 50 times; hydrolysis of substrate by TRAP5b (TRAP5b [2]): readily hydrolyze; also recorded: hydrolised; TRAP5a detected, as share of the TRAP5a detected by the pNPP-based assay (TRAP5a [3]; from specific activities, PTMP pH 7.0 vs pNPP pH 6.1): 20%; TRAP5a detected, as share of the TRAP5a detected by the pNPP-based assay (TRAP5a [6]; peak TRAP5a fraction 53): 16%; hydrolysis of substrate by TRAP5a (TRAP5a [4]): readily hydrolyze; also recorded: hydrolised"
"O=P(O)(O)Oc1ccc(C2(c3ccc(O)cc3)OS(=O)(=O)c3ccccc32)cc1 (stereo not shown) [Phenol Red, Phenol Red monophosphate]",–,–,–,0.0067,0.3558,53.1,–
